Test results reported in patent US4416898A, “Therapeutic uses of methionine” (Pharmuka Laboratoires, priority 1982, dated 1983).

Columns and labels:
[1] = test system: dopaminergic receptors (B lymphocytes); conditions: [^3 H spiperone] = 1 nM; L-methionine 500 mg/kg I.P. twice daily over 5 days; n = 10; *P < 0.01; control 17 ± 3
Description: (§1) Since nude mice have no thymus gland, all of the lymphocytes of the spleen thereof are of the B type. Thus, these mice have the advantage of presenting pure B lumphocytes for observation. […] The [^3 H] spiperone bindings to striatal membranes (see Europ. J. Pharmacol. 50, 283, 1978) and intact B lymphocytes (see J. Pharm. Pharmacol. 33, 102, 1981) were performed in the same animal.

[2] = target: dopaminergic receptors (striatum) (Mus musculus, UniProt P61168)
Description: as §1

[3] = Water solubility and wettability of L-methionine; type: physicochemical; conditions: flakes
Parkinsonian patients = conditions: 11 patients, 5 g/day, after 2 weeks, especially on akinesia, tremor and mood
[4] = test system: [^3 H] spiperone binding sites (lymphocytes from Parkinsonian patients); conditions: after treatment, before treatment 7±6
rats = conditions: IV; cited from earlier work
Parkinsonism = conditions: with L-Dopa; J. Amer. Med. Assoc. 230, 305, 1974; cited from earlier work

Sequence of dopaminergic receptors (striatum) (P61168 whole entry): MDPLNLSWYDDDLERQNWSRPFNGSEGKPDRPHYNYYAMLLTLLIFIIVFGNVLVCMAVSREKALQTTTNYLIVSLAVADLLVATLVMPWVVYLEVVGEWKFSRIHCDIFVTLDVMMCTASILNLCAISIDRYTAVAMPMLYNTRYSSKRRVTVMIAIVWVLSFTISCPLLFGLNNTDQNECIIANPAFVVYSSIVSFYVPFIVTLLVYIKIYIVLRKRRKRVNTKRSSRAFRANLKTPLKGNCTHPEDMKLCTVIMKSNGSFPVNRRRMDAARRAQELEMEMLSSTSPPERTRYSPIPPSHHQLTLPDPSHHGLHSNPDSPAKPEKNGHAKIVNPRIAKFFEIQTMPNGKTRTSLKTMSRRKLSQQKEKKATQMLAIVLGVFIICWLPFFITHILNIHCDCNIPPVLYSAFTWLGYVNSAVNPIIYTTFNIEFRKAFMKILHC

With `CSCC[C@H](N)C(=O)O` [L-methionine] the “[^3 H] spiperone binding, B lymphocytes” value [1] was 37 ± 5 fmoles/10^6 cells, the “affinity constant [KD]” value ([2]; KD of [^3 H] spiperone (not of L-methionine), striatum of treated mice, chronic treatment, control 0.17 nM) was 0.20 nM and the “[^3 H] spiperone binding, striatum” value ([2]; [^3 H spiperone] = 0.3 nM, L-methionine 500 mg/kg I.P. twice daily over 5 days, n = 10, **P < 0.001, control 40 ± 1) was 62 ± 3 fmoles/mg protein. For the same compound, the “number of binding sites [Bmax]” value ([2]; [^3 H] spiperone, striatum of treated mice, chronic treatment, control 302) was 491 fmoles/mg protein, the “change in affinity constant [KD]” value ([2]; [^3 H] spiperone, striatum, chronic treatment of L-methionine) was “no change in the affinity constant was detected” and the solubility in water [3] was “slightly soluble in water”. For the same compound, the wettability [3] was “poorly wettable”, the “improvement of Parkinsonism” value (Parkinsonian patients) was “very good improvement” and the “number of [^3 H] spiperone binding sites to lymphocytes” value [4] was 98±19 fentomoles per 10^6 cells. The LD50 (rats) was 4500 mg/kg and the “effect on L-Dopa effectiveness in Parkinsonism” value (Parkinsonism) was “may reverse the effectiveness of L-Dopa”.
